{"source": "paper PMC6269587", "about": "(Iranian Journal of Pharmaceutical Research : IJPR, 2018)", "key": {"[1]": {"assay": "DPPH radical scavenging activity (antioxidant activity)", "conditions": "DPPH method, 30 min, 517 nm, triplicate", "procedure": "The DPPH method is based on the free radical scavenging activity ([17]). briefly, 2 mL of DPPH solution in methanol (4×10^-5 g/mL) was prepared and added to 1 mL of different concentrations of sample solution in methanol (0.1, 0.5 and 1.0 mg/mL). The mixture was kept in the dark for 30 min at room temperature. The antioxidant activity was measured by Shimadzu, UV/VIS model 160A spectrophotometer at 517 nm.\nAll the measurements were done in triplicate. The IC50 values were calculated as means ± SD and butylated hydroxytoluene (BHT) was used as positive control."}, "[2]": {"biological_target": "T1, Acetylcholinesterase (AChE) (Homo sapiens, UniProt P22303)", "T1 construct": "purchased Sigma (Germany)", "T1 sequence (P22303 32-614, species assumed)": "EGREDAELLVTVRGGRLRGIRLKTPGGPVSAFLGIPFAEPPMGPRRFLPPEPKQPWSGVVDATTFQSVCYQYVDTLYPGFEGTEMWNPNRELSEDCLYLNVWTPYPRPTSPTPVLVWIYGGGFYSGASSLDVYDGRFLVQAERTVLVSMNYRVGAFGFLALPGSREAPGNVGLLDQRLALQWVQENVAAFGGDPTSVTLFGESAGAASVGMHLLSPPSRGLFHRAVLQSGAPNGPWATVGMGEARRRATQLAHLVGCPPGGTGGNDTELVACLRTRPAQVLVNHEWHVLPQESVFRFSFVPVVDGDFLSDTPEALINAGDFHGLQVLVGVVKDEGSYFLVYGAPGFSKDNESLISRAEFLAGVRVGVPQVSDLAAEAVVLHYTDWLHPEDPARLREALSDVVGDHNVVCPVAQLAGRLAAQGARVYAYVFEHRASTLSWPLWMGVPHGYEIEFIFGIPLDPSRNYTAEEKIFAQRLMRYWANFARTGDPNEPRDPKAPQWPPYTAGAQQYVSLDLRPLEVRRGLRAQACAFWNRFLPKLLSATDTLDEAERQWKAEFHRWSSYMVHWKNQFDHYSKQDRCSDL", "assay": "biochemical", "conditions": "for AChE Inhibitory IC50 ± SD: Ellman's method, 412 nm, 25 °C, pH 8.0", "procedure": "AChE inhibitory effect of petroleum ether, chloroform, ethyl acetate, and methanol fractions were carried out by the Ellman′s method ([16])."}, "[3]": {"tested_on": "triple transgenic mice of Alzheimer's disease model", "conditions": "cited from earlier work"}, "brain cells": {"tested_on": "brain cells", "conditions": "mice; cited from earlier work"}}}
{"molecule": "O=c1c(O[C@@H]2O[C@H](CO)[C@@H](O)[C@H](O)[C@H]2O)c(-c2ccc(O)cc2)oc2cc(O)cc(O)c12", "note": "[Astragalin, astragalin]", "values": [{"measurement": "Antioxidant Activity IC50 ± SD", "setting": "[1]", "result": "26.92 ± 3.5", "unit": "µg/mL"}, {"measurement": "IC50", "setting": "[2]", "result": 162, "unit": "µM"}]}
{"molecule": "Cc1cc(C(C)(C)C)c(O)c(C(C)(C)C)c1", "note": "[BHT, butylated hydroxytoluene, reference compound]", "values": [{"measurement": "Antioxidant Activity IC50 ± SD", "setting": "[1]", "result": "19.50 ± 2.8", "unit": "µg/mL"}]}
{"molecule": "O=C(O)/C=C/c1ccc(O)c(O)c1", "note": "[Caffeic acid]", "values": [{"measurement": "Antioxidant Activity IC50 ± SD", "setting": "[1]", "result": "11.41 ± 6.0", "unit": "µg/mL"}, {"measurement": "IC50", "setting": "[2]", "result": 66.9, "unit": "µM"}]}
{"molecule": "O=c1c(O)c(-c2ccc(O)c(O)c2)oc2cc(O)cc(O)c12", "note": "[Quercetin, quercetin]", "values": [{"measurement": "Antioxidant Activity IC50 ± SD", "setting": "[1]", "result": "10.24 ± 1.3", "unit": "µg/mL"}, {"measurement": "IC50", "setting": "[2]", "result": 220, "unit": "µM"}, {"measurement": "effect on performance, emotional and cognitive behavior", "setting": "[3]", "result": "protective effects on performance, emotional and cognitive behavior have been confirmed"}, {"measurement": "neuroprotective effect", "setting": "brain cells", "result": "strong protective effects of this compound on the brain cells"}]}
{"molecule": "O=C(O)c1ccccc1O", "note": "[Salicylic acid]", "values": [{"measurement": "Antioxidant Activity IC50 ± SD", "setting": "[1]", "result": "114.57 ± 1.0", "unit": "µg/mL"}, {"measurement": "AChE Inhibitory IC50 ± SD", "setting": "[2]", "result": "-"}]}
{"molecule": "O=C(O)C=Cc1ccc(O)cc1", "note": "[p-Coumaric acid]", "values": [{"measurement": "Antioxidant Activity IC50 ± SD", "setting": "[1]", "result": "110.33 ± 1.2", "unit": "µg/mL"}, {"measurement": "AChE Inhibitory IC50 ± SD", "setting": "[2]", "result": "-"}]}
